Assay [1] relates to Phakopsora pachyrhizi (strain containing the amino acid substitution F129L in the mitochondrial cytochrome b protein). Put plainly: Use example 1: protective control of soybean rust on soybeans (PHAKPA P2), inoculation 2 days after spraying. The assay is classed as in vivo. To be noted: % diseased leaf area on soybean, 16 ppm spray, inoculation 2 days after treatment, untreated controls usually >85 %. Here is the method:
(§1) The compound was dissolved in a mixture of acetone and/or dimethylsulfoxide and the wetting agent/emulsifier Wettol, which is based on ethoxylated alkylphenoles, in a ratio (volume) solvent-emulsifier of 99 to 1 to give a total volume of 5 ml. Subsequently, water was added to total volume of 100 ml. This stock solution was then diluted with the described solvent-emulsifier-water mixture to the final concentration given in the table below.
Use example 1. Protective control of soybean rust on soybeans caused by Phakopsora pachyrhizi (PHAKPA P2)
(§2) Leaves of potted soybean seedlings were sprayed to run-off with the previously described spray solution, containing the concentration of active ingredient or their mixture as described below. The plants were allowed to air-dry. The trial plants were cultivated for 2 days in a greenhouse chamber at 23-27° C. and a relative humidity between 60 and 80 %. Then the plants were inoculated with spores of Phakopsora pachyrhizi. The strain used contains the amino acid substitution F129L in the mitochondrial cytochrome b protein conferring resistance to Qo inhibitors. To ensure the success the artificial inoculation, the plants were transferred to a humid chamber with a relative humidity of about 95 % and 20 to 24° C. for 24 hr. The trial plants were cultivated for up to 14 days in a greenhouse chamber at 23 to 27° C. and a relative humidity between 60 and 80 %. The extent of fungal attack on the leaves was visually assessed as % diseased leaf area, the disease level of untreated controls was usually higher than 85 %.
(§3) All test results below are given for the control of phytopathogenic fungi containing the amino acid substitution F129L in the mitochondrial cytochrome b protein conferring resistance to Qo inhibitors.

The test system is the same in assay [2]. Put plainly: Use example 2: protective control of soybean rust on soybeans (PHAKPA P6), inoculation six days after spraying. The assay is classed as in vivo. To be noted: % diseased leaf area on soybean, 16 ppm spray, inoculation six days after treatment, untreated controls usually >85 %. Here is the method:
as §1
Use example 2. Protective control of soybean rust on soybeans caused by Phakopsora pachyrhizi (PHAKPA P6)
as §2, with “active ingredient as described” for “active ingredient or their mixture as described”, “cultivated for six days in” for “cultivated for 2 days in”, “% and 23 to 27°” for “% and 20 to 24°”, “23 to 27° C. for” for “20 to 24° C. for”
as §3

With `CO/N=C(/C(=O)OC)c1cccc(C)c1CO/N=C(\C)C#Cc1ccc(Br)cc1` [Example 56], in assay [1], the “PHAKPA Disease level (%) P2 at 16 ppm” value is recorded as 18%. In addition, the “PHAKPA Disease level (%) P6 at 16 ppm” value in assay [2] is reported as 37%.
The matching figures for `CNC(=O)/C(=N/OC)c1cccc(C)c1CO/N=C(\C)C#Cc1cccc(OC(F)(F)F)c1` [Example 27]: 0% and 0%.
The matching figures for `CNC(=O)/C(=N/OC)c1ccccc1CO/N=C(\C)C#Cc1ccc(Cl)cc1` [Example 4]: 3% and 7%.
The matching figures for `CO/N=C(/C(=O)OC)c1ccccc1CO/N=C(\C)C#Cc1c(Cl)cccc1Cl` [Example 93]: 87% and 97%.
Take `CO/N=C(/C(=O)OC)c1ccccc1CO/N=C(\C)C#Cc1ccccc1Br` [Example 46]: in assay [1], the “PHAKPA Disease level (%) P2 at 16 ppm” value was determined as 47%. Also, in assay [2], the “PHAKPA Disease level (%) P6 at 16 ppm” value is listed as 37%.
For `CO/N=C(/C(=O)OC)c1cccc(C)c1CO/N=C(\C)C#Cc1cccc(Cl)c1` [Example 72] the same measures were 7% and 8%.
For `CO/N=C(/C(=O)OC)c1ccccc1CO/N=C(\C)C#Cc1ccc(C(F)(F)F)cc1` [Example 65] the same measures were 80% and 70%.
The matching figures for `CO/N=C(/C(=O)OC)c1cccc(C)c1CO/N=C(\C)C#Cc1ccc(F)cc1` [Example 34]: 0% and 0%.
As to `CNC(=O)/C(=N/OC)c1ccccc1CO/N=C(\C)C#Cc1cccc(OC(F)(F)F)c1` [Example 53], the “PHAKPA Disease level (%) P2 at 16 ppm” value in assay [1] is listed as 0%. In addition, in assay [2], the “PHAKPA Disease level (%) P6 at 16 ppm” value worked out at 0%.
`CNC(=O)/C(=N/OC)c1ccccc1CO/N=C(\C)C#Cc1cccc2c1OC(F)(F)O2` [Example 101]: the “PHAKPA Disease level (%) P2 at 16 ppm” value in assay [1] worked out at 4%. In addition, the “PHAKPA Disease level (%) P6 at 16 ppm” value in assay [2] was determined as 2%.
The matching figures for `CO/N=C(/C(=O)OC)c1ccccc1CO/N=C(\C)C#Cc1ccc(Br)cc1` [Example 54]: 22% and 25%.
The matching figures for `CO/N=C(/C(=O)OC)c1cccc(C)c1CO/N=C(\C)C#Cc1ccccc1OC(F)(F)F` [Example 26]: 2% and 6%.
Regarding `CO/C=C(/C(=O)OC)c1cccc(C)c1CO/N=C(\C)C#Cc1ccc(F)c(C(=O)OC)c1` [Example 122], the “PHAKPA Disease level (%) P2 at 16 ppm” value in assay [1] was 73%. The “PHAKPA Disease level (%) P6 at 16 ppm” value in assay [2] is 60%.
The matching figures for `CNC(=O)/C(=N/OC)c1cccc(C)c1CO/N=C(\C)C#Cc1ccc(OC(F)(F)F)cc1` [Example 21, (2E)-2-Methoxyimino-N-methyl-2-[3-methyl-2-[[(E)-[1-methyl-3-[4-(trifluoromethoxy)phenyl]prop-2-ynylidene]amino]oxymethyl]phenyl]acetamide]: 25% and 33%.
For `CNC(=O)/C(=N/OC)c1cccc(C)c1CO/N=C(\C)C#Cc1ccccc1C(F)(F)F` [Example 68], the “PHAKPA Disease level (%) P2 at 16 ppm” value in assay [1] is given as 0%. Besides, the “PHAKPA Disease level (%) P6 at 16 ppm” value in assay [2] came out at 1%.
For `CNC(=O)/C(=N/OC)c1ccccc1CO/N=C(/C#Cc1ccc(Cl)cc1)COC` [Example 112] the same measures were 38% and 25%.
The matching figures for `CO/N=C(/C(=O)OC)c1cccc(C)c1CO/N=C(\C)C#Cc1ccc(Cl)cc1` [Example 32]: 12% and 35%.
Regarding `CO/N=C(/C(=O)OC)c1ccccc1CO/N=C(\C)C#Cc1ccc(OCC(F)(F)F)cc1` [Example 98], in assay [1], the “PHAKPA Disease level (%) P2 at 16 ppm” value is recorded as 73%. Moreover, the “PHAKPA Disease level (%) P6 at 16 ppm” value in assay [2] is given as 93%.
The matching figures for `CO/C=C(/C(=O)OC)c1cccc(C)c1CO/N=C(\C)C#Cc1ccc(F)cc1C(=O)OC` [Example 124]: 14% and 53%.
For `CO/N=C(/C(=O)OC)c1cccc(C)c1CO/N=C(\C)C#Cc1ccc(OC(F)(F)F)cc1` [Example 22, methyl (2E)-2-methoxyimino-2-[3-methyl-2-[[(E)-[1-methyl-3-[4-(trifluoromethoxy)-phenyl]prop-2-ynylidene]amino]oxymethyl]phenyl]acetate] the same measures were 93% and 97%.
Take `CO/N=C(/C(=O)OC)c1ccccc1CO/N=C(\C)C#Cc1ccc(Cl)cc1` [Example 3]: the “PHAKPA Disease level (%) P2 at 16 ppm” value in assay [1] was 70%. Besides, the “PHAKPA Disease level (%) P6 at 16 ppm” value in assay [2] was 70%.
As to `CNC(=O)/C(=N/OC)c1ccccc1CO/N=C(\C)C#Cc1cccc(Br)c1` [Example 5], the “PHAKPA Disease level (%) P2 at 16 ppm” value in assay [1] worked out at 1%. Besides, the “PHAKPA Disease level (%) P6 at 16 ppm” value in assay [2] is on record as 7%.
For `CO/N=C(/C(=O)OC)c1ccccc1CO/N=C(\C)C#Cc1ccccc1` [Example 1, Methyl (2E)-2-methoxyimino-2-[2-[[(E)-(1-methyl-3-phenyl-prop-2-ynylidene)amino]-oxymethyl]phenyl]acetate], the “PHAKPA Disease level (%) P2 at 16 ppm” value in assay [1] is given as 38%. The “PHAKPA Disease level (%) P6 at 16 ppm” value in assay [2] was 58%.
The matching figures for `CO/N=C(/C(=O)OC)c1ccccc1CO/N=C(\C)C#Cc1ccc(OC(F)(F)F)cc1C1CC1` [Example 121]: 87% and 53%.
Take `CNC(=O)/C(=N/OC)c1ccccc1CO/N=C(\C)C#Cc1ccccc1OC(F)(F)F` [Example 9]: the “PHAKPA Disease level (%) P2 at 16 ppm” value in assay [1] worked out at 0%. Moreover, the “PHAKPA Disease level (%) P6 at 16 ppm” value in assay [2] amounted to 5%.
The matching figures for `CNC(=O)/C(=N/OC)c1cccc(C)c1CO/N=C(\C)C#Cc1ccccc1Br` [Example 47]: 0% and 0%.
The matching figures for `CO/N=C(/C(=O)OC)c1ccccc1CO/N=C(\C)C#Cc1ccc(Cl)cc1C(F)(F)F` [Example 94]: 53% and 47%.
For `CO/N=C(/C(=O)OC)c1ccccc1CO/N=C(\C)C#Cc1ccccc1OC(F)(F)F` [Example 10] the same measures were 70% and 83%.
Consider `CO/N=C(/C(=O)OC)c1ccccc1CO/N=C(\C)C#Cc1ccc(OC2CC2)cc1` [Example 102], for which the “PHAKPA Disease level (%) P2 at 16 ppm” value in assay [1] came out at 80%. In addition, the “PHAKPA Disease level (%) P6 at 16 ppm” value in assay [2] is reported as 63%.
Take `CO/N=C(/C(=O)OC)c1ccccc1CO/N=C(\C)C#Cc1ccccc1F` [Example 60]: in assay [1], the “PHAKPA Disease level (%) P2 at 16 ppm” value was 40%. Further, the “PHAKPA Disease level (%) P6 at 16 ppm” value in assay [2] is reported as 17%.
The matching figures for `CNC(=O)/C(=N/OC)c1ccccc1CO/N=C(\C)C#Cc1ccccc1C` [Example 51]: 0% and 0%.
For the molecule `CNC(=O)/C(=N/OC)c1cccc(C)c1CO/N=C(\C)C#Cc1cccc(F)c1` [Example 38], in assay [1], the “PHAKPA Disease level (%) P2 at 16 ppm” value turned out to be 0%. Moreover, the “PHAKPA Disease level (%) P6 at 16 ppm” value in assay [2] is 1%.

These data come from patent US20230303483A1, “USE OF STROBILURIN TYPE COMPOUNDS FOR COMBATING PHYTOPATHOGENIC FUNGI CONTAINING AN AMINO ACID SUBSTITUTION F129L IN THE MITOCHONDRIAL CYTOCHROME B PROTEIN CONFERRING RESISTANCE TO QO […]” (BASF SE, priority 2020, published 2023).
